Results taken from patent US20240301023A1 (priority 2020, published 2024).
Read-outs that look alike come from different tables or passages of the source. Square brackets hold non-standard residues; d marks the D form. Peptide text beside a SMILES is read from it. Phe(4-NO2) = N[C@@H](Cc1ccc([N+](=O)[O-])cc1)C(=O)O; Phe(4-Cl) = N[C@@H](Cc1ccc(Cl)cc1)C(=O)O; NMeR = CN[C@@H](CCCNC(=N)N)C(=O)O; Aoc = NCCCCCCCC(=O)O; Sar = CNCC(=O)O

How the values were obtained:
[1] = molecular target: Kappa opioid receptor (KOR) (Homo sapiens, UniProt P41145); test: cell-based; format: cell-based
[2] = molecular target: KOPr (Homo sapiens, UniProt P41145); format: cell-based
[3] = Stability in water; format: physicochemical; conditions: ultra-pure Milli-Q water
Protocol: Stability in water was carried out by incubating each candidate in ultra-pure, Milli-Q water (Millipore Corporation). Again, volumes, times and preparation protocols were exactly as described above in plasma stability method above.

[4] = Stability in rat plasma; format: in vitro ADME; conditions: both sexes, Wistar, 37° C., 100 μM peptide
Protocol: Stability in plasma was assessed in rat plasma. Plasma was collected in-house from adult mixed-gender Wistar rats, prepared using 2% EDTA as per standard practice. Peptides were added to the rat plasma samples at 37° C. in a water bath with final concentrations of 100 μM (1:9 peptide in water:plasma). The assay was then carried out in the same manner as the assay in bovine trypsin.

[5] = molecular target: T1, bovine pancreatic trypsin (Bos taurus, UniProt P00760); test: Stability in bovine trypsin; format: in vitro ADME; conditions: bovine pancreatic trypsin 2.5 μg/mL, NH4HCO3 buffer pH 8-8.5, 37° C., 100 μM peptide; for half-life at 100 µM: bovine pancreatic trypsin solution
T1 construct: from tissue; host or cells: bovine pancreas
T1 sequence (P00760 24-246): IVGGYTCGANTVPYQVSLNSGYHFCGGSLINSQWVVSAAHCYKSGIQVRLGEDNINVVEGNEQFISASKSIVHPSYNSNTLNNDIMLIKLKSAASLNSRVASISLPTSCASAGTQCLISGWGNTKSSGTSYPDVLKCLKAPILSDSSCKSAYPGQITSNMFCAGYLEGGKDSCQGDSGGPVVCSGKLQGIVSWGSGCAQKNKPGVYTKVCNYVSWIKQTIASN
Protocol: The stability of the peptides was analysed in typsin, plasma and water. Stability of linear peptides is generally low due to rapid degradation by endogenous peptidases and proteases. While stability in bodily fluids is important, absolute stability may not be prudent or desirable due to potential build-up in vivo leading to adverse side effects, and/or hazards to the environment and recirculation of exceptionally stable compounds in waterways. Thus, compounds that are extremely stable in either plasma or typsin are not generally considered “drug-like”.
Stability in bovine trypsin was analysed for SEQ ID Nos. 2 to 7 and 11 to 17. Peptides were added to trypsin solution (bovine pancreatic trypsin 2.5 μg/mL in NH4HCO3 buffer, pH approximately 8-8.5, 37° C.) in a water bath with final concentrations of 100 μM peptide. A 50 μL sample was taken immediately and precipitated in 150 μL of cold acetonitrile (9:1 acetonitrile:water) This sample became the baseline, or t=0 min sample. The trypsin peptide mixture was immediately returned to the water bath and subsequent 50 μL samples were taken at 5, 10, 15, 30, 60 and 120 min. At each time point, the 50 μL sample was collected and immediately added to cold acetonitrile (ACN). Each sample was vortexed for 30 sec and then centrifuged at room temperature (RT) (13K rpm, 5 min). 150 μL of the supernatant was taken and directly place in a glass HPLC vial for LCMS analysis.

[6] = molecular target: T2, KOR (Homo sapiens, UniProt P41145); test: cell-based; format: cell-based
[7] = molecular target: Delta opioid receptor (DOR) (Homo sapiens, UniProt P41143); test: cell-based; format: cell-based
[8] = molecular target: Mu opioid receptor (MOR) (Homo sapiens, UniProt P35372); test: cell-based; format: cell-based
[9] = Pharmacokinetic parameters after i.v. administration in rats; format: in vivo; conditions: rat; for half-life / clearance / Vd: iv, dose 0.3 mg/kg (SEQ ID NO. 19), 1 mg/kg (SEQ ID NO. 24); for clearance: read-out: CLtotal; for Vd: read-out: Vdss; for opioid-like adverse effects (e.g. respiratory depression, sedation): 0.3 mg/kg (SEQ ID NO 19), 1 mg/kg (SEQ ID NO 24)
Text: Methods are as previously reported (Hill et al., ACS Med. Chem. Lett. 2014, 5(10), 1148-51; Lohman et al., Chem. Commun. (Camb), 2019, 55(89), 13362-13365; Neilsen et al., Org. Lett., 2012, 14(22), 5720-3; Neilsen et al, Chembiochem, 2015, 16(16), 2289-93; Justyna et al., Current Drug Targets, 2013, 14(7), 798-816)). Rats were surgically implanted with a jugular vein catheter (sterile polyethylene, o.d. 0.96 mm i.d. 0.58 mm, Microtube Extrusions, Aust.) and allowed to recover overnight. Baseline blood samples (t=0) were taken prior to peptide administration directly from the indwelling jugular vein catheter. Peptide was administered directly via the catheter (i.v route), followed by a 200 μL chaser volume of heparinised saline (20 U/mL) to flush the line. Further blood samples (200 μL/sample) were collected directly from the intravenous catheter at t=1, 5 15, 30, 60, 90 120 as 180 minutes post-administration. Volumes taken were replaced with heparinised saline to avoid hypovolaemia. Blood samples were immediately centrifuged (14 k rpm, 5 min) and plasma supernatant snap frozen on dry ice for later processing. Plasma samples were thawed and diluted 1 in 4 acetonitrile, vortexed, sonicated and centrifuged. Supernatants were transferred to HPLC vials for LCMS analysis.
A Triple Quad Mass-Spectrometer (model 6460, Agilent Technologies) coupled to a Bidentate C18 HPLC column (Cogent, 100 Å, 4 μM) was used to analyse all samples. Separations were carried out using a binary solvent gradient. A Multiple Reaction Monitoring (MRM) protocol was developed for each individual peptide to maximise sensitivity of the Mass-spec and optimise the Limit of Detection (LOD) from a serially diluted standard curve, performed in both acetonitrile solvent and neat rat plasma.
Samples were analysed using MassHunter Software packages, and area under the curve (AUC) was measured for each peak of interest in the MRM, as a direct measure of concentration of compound ions in the sample. AUCs were converted to plasma concentrations (Cp; μg/mL and μM) using the standard curves generated in plasma. Data was analysed using MS Excel software. A two compartment model was adopted to determine the pharmacokinetic properties of each peptide in the rat. The first phase describes the distribution throughout the circulatory compartment, and the second phase describes the elimination/steady state concentration in plasma/tissue. Plasma half-life, volume of distribution and clearance were determined from the steady-state elimination phase.

[10] = molecular target: T2, KOR; test: biochemical; format: binding
[11] = test system: Freund's Complete Adjuvant model of inflammatory nociception; conditions: rat, in vivo

T2 sequence (P41145 whole entry): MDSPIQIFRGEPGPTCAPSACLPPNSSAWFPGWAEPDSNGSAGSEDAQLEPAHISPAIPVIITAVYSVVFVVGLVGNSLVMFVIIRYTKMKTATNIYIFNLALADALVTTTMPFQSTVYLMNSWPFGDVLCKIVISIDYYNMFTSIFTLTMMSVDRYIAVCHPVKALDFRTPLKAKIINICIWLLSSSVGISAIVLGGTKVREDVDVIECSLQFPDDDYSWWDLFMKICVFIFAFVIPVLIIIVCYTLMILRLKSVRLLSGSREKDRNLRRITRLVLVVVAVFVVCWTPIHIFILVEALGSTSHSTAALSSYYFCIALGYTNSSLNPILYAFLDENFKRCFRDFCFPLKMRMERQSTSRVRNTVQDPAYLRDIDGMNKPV
KOPr, sequence (P41145 whole entry): as above
Kappa opioid receptor (KOR), sequence (P41145 whole entry): as above
Mu opioid receptor (MOR), sequence (P35372 whole entry): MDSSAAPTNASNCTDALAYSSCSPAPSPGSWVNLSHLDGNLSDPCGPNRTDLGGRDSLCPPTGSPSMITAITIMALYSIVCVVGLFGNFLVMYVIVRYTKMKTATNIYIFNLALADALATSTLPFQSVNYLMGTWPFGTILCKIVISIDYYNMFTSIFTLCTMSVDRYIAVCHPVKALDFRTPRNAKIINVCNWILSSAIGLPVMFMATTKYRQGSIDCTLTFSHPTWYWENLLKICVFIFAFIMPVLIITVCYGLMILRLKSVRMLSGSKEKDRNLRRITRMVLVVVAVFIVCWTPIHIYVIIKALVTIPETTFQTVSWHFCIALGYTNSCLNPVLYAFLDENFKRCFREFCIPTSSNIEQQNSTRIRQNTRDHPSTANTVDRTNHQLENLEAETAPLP
Delta opioid receptor (DOR), sequence (P41143 whole entry): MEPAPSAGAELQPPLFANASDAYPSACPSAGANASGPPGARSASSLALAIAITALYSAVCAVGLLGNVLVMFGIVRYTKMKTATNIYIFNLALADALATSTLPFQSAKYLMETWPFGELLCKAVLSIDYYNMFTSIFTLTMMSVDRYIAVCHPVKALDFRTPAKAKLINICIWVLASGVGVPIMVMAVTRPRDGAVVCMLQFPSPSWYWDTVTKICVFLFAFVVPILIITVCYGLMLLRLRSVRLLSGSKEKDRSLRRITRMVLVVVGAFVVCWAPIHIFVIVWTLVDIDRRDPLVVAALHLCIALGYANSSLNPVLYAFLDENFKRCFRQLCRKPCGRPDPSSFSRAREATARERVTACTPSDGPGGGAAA

SMILES | cAMP assay KOR 1 μM [1] | cAMP assay KOR 10 μM [1] | bias factor (β) relative to U50488H [2] | pERK1/2 activity [2] | half-life at 100 µM [3] [h] | half-life at 100 µM [4] [h] | KOR desensitisation (change of cAMP maximal response after pre-treatment) [6] | EC50 [7] [nM] | cAMP assay DOR 1 μM [7] | cAMP assay DOR 10 μM [7] | EC50 [8] [nM] | cAMP assay MOR 1 μM [8] | cAMP assay MOR 10 μM [8] | cAMP activity in the presence of naloxone, KOR cells [1] | also measured
CC(C)C[C@@H](NC(=O)[C@@H](Cc1ccccc1)NC(=O)[C@H](N)Cc1ccccc1)C(=O)N[C@H](CCCCN)C(=O)N1CCC(N)(C(=O)O)CC1 [SEQ ID NO. 35, DPhe-DPhe-DLeu-DLys-Cap-CO2H, reference compound] | 25.93 | 34.61 | no bias either way | time and concentration dependent pERK expression | > 16.7 | 10.8 | significant reduction maximal effect | > 10000 | −5.72 | 3.27 | > 10000 | 0.37 | 8.07 | – | half-life at 100 µM [5]: 17.6 h
CC(C)C[C@H](NC(=O)[C@H](Cc1ccc([N+](=O)[O-])cc1)NC(=O)CN(C)C(=O)[C@@H](N)Cc1ccc(O)cc1)C(=O)N(C)[C@@H](CCCNC(=N)N)C(=O)N(C)[C@@H](CCCNC(=N)N)C(N)=O [SEQ ID NO. 19, NH2-Tyr-Sar-(4-NO2)Phe-Leu-NMA-NMA-NH2] (H-Y[Sar][Phe(4-NO2)]L[NMeR][NMeR]-NH2) | – | – | bias towards cAMP | failed to show any pERK activity | – | – | no sign of desensitisation | – | – | – | – | – | – | significantly inhibited | EC50 ([1]; read-out: Activity (EC50, nM) KOR): 31.1 nM; half-life ([9]; in vivo): 0.398 h; clearance ([9]; in vivo): 5.7 mL/min/kg; Vd ([9]; in vivo): 0.4 L/kg; opioid-like adverse effects (e.g. respiratory depression, sedation) [9]: no sign of opioid-like adverse effects; Log IC50 [10]: −5.71; IC50 ([10]; read-out: IC50): 1950 nM; Ki ([10]; read-out: Ki): 180 nM; Area under the curve (AUC) efficacy compared to U50488H [11]: significantly better efficacy than U50488H; Efficacy Index (Ie) relative to morphine [11]: statistically significantly greater Ie over morphine
CC(C)C[C@H](NC(=O)[C@H](Cc1ccccc1)NC(=O)CNC(=O)CNC(=O)[C@@H](N)Cc1ccc(O)cc1)C(=O)N[C@@H](CCCNC(=N)N)C(=O)N[C@@H](CCCNC(=N)N)C(=O)O [SEQ ID NO. 38, Tyr-Gly-Gly-Phe-Leu-Arg-Arg, reference compound] | – | – | – | – | > 16.7 | – | did not show any desensitisation | – | – | – | – | – | – | – | EC50 ([7]; read-out: Activity (EC50, nM) DOR): 870 nM; EC50 ([8]; read-out: Activity (EC50, nM) MOR): 3740 nM
CC(C)C[C@H](NC(=O)[C@H](Cc1ccc(Cl)cc1)NC(=O)CN(C)C(=O)[C@@H](N)Cc1ccc(O)cc1)C(=O)N[C@@H](CCCNC(=N)N)C(=O)N[C@H](CCCNC(=N)N)C(=O)NCCCCCCCC(N)=O [SEQ ID NO. 24, NH2-Tyr-Sar-(4-Cl)Phe-Leu-Arg-DArg-C7H14-CONH2] (H-Y[Sar][Phe(4-Cl)]LR[dR][Aoc]-NH2) | – | – | bias towards cAMP | some influence over pERK induction | – | – | modest desensitisation | > 10000 | – | – | > 10000 | – | – | significantly inhibited | EC50 [1]: 3.87 nM; half-life ([9]; plasma): 0.213 h; clearance ([9]; plasma): 26.3 mL/min/kg; Vd ([9]; plasma): 1.7 L/kg; opioid-like adverse effects (e.g. respiratory depression, sedation) [9]: No adverse effects were observed; IC50 [10]: 72.6 nM; Ki [10]: 6.7 nM; Efficacy Index (Ie) relative to morphine [11]: statistically significantly greater Ie over morphine
CC(C)C[C@H](NC(=O)[C@H](Cc1ccc([N+](=O)[O-])cc1)NC(=O)CN(C)C(=O)[C@@H](N)Cc1ccc(O)cc1)C(=O)N[C@@H](CCCNC(=N)N)C(=O)N[C@H](CCCNC(=N)N)C(N)=O [SEQ ID NO. 4, NH2-Tyr-Sar-(4-NO2)Phe-Leu-Arg-DArg-NH2] (H-Y[Sar][Phe(4-NO2)]LR[dR]-NH2) | 34.93 | 40.29 | bias towards cAMP | failed to show any pERK activity | – | 1.18 | no sign of desensitisation | – | −0.75 | 2.04 | – | 0.17 | 2.52 | significantly inhibited | EC50 [1]: 8.4 nM; IC50 ([10]; read-out: IC50): 30.2 nM; Ki ([10]; read-out: Ki): 2.8 nM; Half Life Trypsin [5]: 0.257 h; Area under the curve (AUC) efficacy compared to U50488H [11]: significantly better efficacy than U50488H
CN1CC[C@]23c4c5ccc(O)c4O[C@H]2[C@@H](O)C=C[C@H]3[C@H]1C5 [Morphine, reference compound] | – | – | – | – | – | – | – | – | – | – | – | – | – | – | paw withdrawal threshold in the contralateral (uninflamed, untreated) paw at 120 minutes compared to baseline [11]: significantly reduced
CC(C)C[C@H](NC(=O)[C@H](Cc1ccccc1)NC(=O)CN(C)C(=O)[C@@H](N)Cc1ccc(O)cc1)C(=O)N[C@@H](CCCNC(=N)N)C(=O)N[C@@H](CCCNC(=N)N)C(N)=O [SEQ ID NO. 2, NH2-Tyr-Sar-Phe-Leu-Arg-Arg-NH2] (H-Y[Sar]FLRR-NH2) | 21.65 | 32.41 | – | – | > 16.7 | 1.61 | – | > 10000 | −0.47 | 21.96 | 6700 | −2.5 | 12.41 | – | half-life at 100 µM [5]: 0.03 h
